The source of these data is patent US7294630B2, “Piperazinyl piperidine tachykinin antagonists” (SmithKline Beecham Corporation, priority 2000, dated 2007).

Structures can show the parent of a compound that is named as a salt.

For data set [1], the target named is T1, recombinant human NK1 receptors expressed in Chinese Hamster Ovary (CHO) cell membranes (Homo sapiens, UniProt P25103).
T1 construct: expressed in transfected cells; host or cells: Chinese Hamster Ovary (CHO) cells, membrane preparation
T1 sequence (P25103 whole entry): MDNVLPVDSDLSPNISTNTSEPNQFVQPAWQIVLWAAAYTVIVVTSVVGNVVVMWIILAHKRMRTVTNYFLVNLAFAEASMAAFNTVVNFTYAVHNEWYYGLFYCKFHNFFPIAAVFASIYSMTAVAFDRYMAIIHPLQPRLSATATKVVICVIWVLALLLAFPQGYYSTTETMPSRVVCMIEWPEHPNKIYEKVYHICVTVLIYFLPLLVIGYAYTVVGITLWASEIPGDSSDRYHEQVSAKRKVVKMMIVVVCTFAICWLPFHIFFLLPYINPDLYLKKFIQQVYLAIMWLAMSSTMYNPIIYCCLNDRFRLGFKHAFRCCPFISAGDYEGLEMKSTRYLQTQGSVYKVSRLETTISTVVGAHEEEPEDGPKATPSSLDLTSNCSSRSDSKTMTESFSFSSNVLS
In words: NK1-receptor binding affinity, displacement of [3H]-substance P. The settings on record: average of at least two determinations, [3H]substance P displacement; for Ki: read-out: pki (negative logarithm of the inhibition constant Ki) (converted). How it is done:
CHO cell membranes were prepared by using a modification of the method described by Dam T and Quirion R (Peptides, 7:855-864, 1986). Thus ligand binding was performed in 0.4 ml of 50 mM HEPES, pH 7.4, containing 3 mM MnCl2, 0.02% BSA, 0.5 nM [^3H]Substance P (30÷56 Ci/mmol, Amersham), a final membrane concentration of 25 μg of protein/ml, and the test compounds. The incubation proceeded at room temperature for 40 min.
The affinity of the compound of the invention for NK1 receptor was determined using the NK1-receptor binding affinity method measuring in vitro by the compounds' ability to displace [3H]—substance P (SP) from recombinant human NK1 receptors expressed in Chinese Hamster Ovary (CHO) cell membranes. The affinity values are expressed as negative logarithm of the inhibition constant (Ki) of displacer ligands (pKi).

For another data set, the target named is T2, NK1 receptor (Meriones unguiculatus, UniProt Q5DUB1).
T2 construct: from tissue; host or cells: living gerbil, central nervous system (NK1 agonist infused into the cerebral ventricles)
T2 sequence (Q5DUB1 whole entry, the tested form may be a part): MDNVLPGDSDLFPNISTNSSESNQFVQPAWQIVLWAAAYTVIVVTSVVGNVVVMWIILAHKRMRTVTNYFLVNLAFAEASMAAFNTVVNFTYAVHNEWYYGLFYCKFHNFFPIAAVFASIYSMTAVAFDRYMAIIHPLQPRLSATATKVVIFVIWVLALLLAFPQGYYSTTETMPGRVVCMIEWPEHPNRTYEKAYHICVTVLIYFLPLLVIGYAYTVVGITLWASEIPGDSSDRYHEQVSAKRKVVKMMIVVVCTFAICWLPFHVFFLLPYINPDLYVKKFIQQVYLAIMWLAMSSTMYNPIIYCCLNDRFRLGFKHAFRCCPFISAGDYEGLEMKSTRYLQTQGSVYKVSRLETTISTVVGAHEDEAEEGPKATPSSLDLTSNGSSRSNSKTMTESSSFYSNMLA
The data set is described as follows: gerbil foot tapping model (NK1 agonist icv). It is filed as in vivo. The note with it: read-out: ED50 (dose required to inhibit by 50% the tapping induced by the NK1 agonist), oral administration, four hours before NK1 agonist 3 pmol icv. An excerpt: The action of the compounds of the invention at the NK1 receptor may be determined by using conventional tests.
The ability of the compounds of the invention to penetrate the central nervous system and to bind at the nk1 receptor may be determined using the gerbill foot tapping model as described by Rupniak & Williams, Eur. Jour. of Pharmacol., 1994.
The compound was orally administered and four hours later an NK1 agonist (e.g. delta-Aminovaler^6[Pro^9,Me-Leu^10]-substance P (7-11)) (3 pmol in 5 μicv) was infused directly in the cerebral ventricules of the animals. The duration of hind foot tapping induced by the NK1 agonist (e.g. delta-Aminovalery^6[Pro^9,Me-Leu^10]-substance P (7-11)) was recorded continuously for 3 min using a stopclock. […] Alternatively the compounds may be administered subcutaneously or intraperitoneally.

Take `CC(=O)N1CCN([C@H]2CCN(C(=O)N(C)Cc3cc(C(F)(F)F)cc(C(F)(F)F)c3)[C@@H](c3ccc(F)cc3C)C2)CC1.Cl` [Example 7b, 4-(S)-(4-Acetyl-piperazin-1-yl)-2-(R)-(4-fluoro-2-methyl-phenyl)-piperidine-1-carboxylic acid, (3,5-bis-trifluoromethyl-benzyl)-methylamide hydrochloride]: the Ki (in general, the equilibrium dissociation constant of an inhibitor or competing ligand from its target) in data set [1] is 74.1 pM. Further, on NK1 receptor, the ED50 was found to be 0.19 mg/kg.

For the molecule `Cc1cc(F)ccc1[C@H]1CC(N2CCN(C)CC2)CCN1C(=O)N(C)Cc1cc(C(F)(F)F)cc(C(F)(F)F)c1.Cl.Cl` (mixture of isomers) [Example 10, 2-(R)-(4-Fluoro-2-methyl-phenyl)-4-(R,S)-(4-methyl-piperazin-1-yl)-piperidine-1-carboxylic acid, (3,5-bis-trifluoromethyl-benzyl)-methylamide dihydrochloride], the melting point – broadly, the temperature, or range, at which the solid turns liquid – is 208 to 209 °C. In addition, in data set [1], the inhibitory constant (Ki) was 115 pM.

Take `Cc1cc(F)ccc1[C@H]1C[C@@H](N2CCN(C(=O)C(C)C)CC2)CCN1C(=O)N(C)[C@H](C)c1cc(C(F)(F)F)cc(C(F)(F)F)c1` [Example 14, 4-(S)-[4-(2-Methyl-propanoyl)-piperazin-1-yl]-2-(R)-(4-fluoro-2-methyl-phenyl)-piperidine-1-carboxylic acid, [1-(R)-(3,5-bis-trifluoromethyl-phenyl)-ethyl]-methylamide hydrochloride]: the Ki in data set [1] was 100 pM.

For `Cc1cc(F)ccc1[C@H]1C[C@@H](N2CCN(C(=O)C3CC3)CC2)CCN1C(=O)N(C)[C@H](C)c1cc(C(F)(F)F)cc(C(F)(F)F)c1.Cl` [Example 12, 4-(S)-(4-Cyclopropanoyl-piperazin-1-yl)-2-(R)-(4-fluoro-2-methyl-phenyl)-piperidine-1-carboxylic acid, [1-(R)-(3,5-bis-trifluoromethyl-phenyl)-ethyl]-methylamide hydrochloride], the Ki in data set [1] is 123 pM. Moreover, at NK1 receptor, the ED50 came to 0.27 mg/kg.

Regarding `Cc1cc(F)ccc1[C@H]1CC(N2CCN(C)CC2)CCN1C(=O)N(C)[C@H](C)c1cc(C(F)(F)F)cc(C(F)(F)F)c1` (mixture of isomers) [Example 8, 2-(R)-(4-Fluoro-2-methyl-phenyl)-4-(R,S)-(4-methyl-piperazin-1-yl)-piperidine-1-carboxylic acid, [1-(R)-(3,5-bis-trifluoromethyl-phenyl)-ethyl]-methylamide hydrochloride], the Ki in data set [1] is 209 pM.

`CNC(=O)N1CCN([C@H]2CCN(C(=O)N(C)Cc3cc(C(F)(F)F)cc(C(F)(F)F)c3)[C@@H](c3ccc(F)cc3C)C2)CC1` [Example 16, 4-(S)-[1-[(3,5-Bis-trifluoromethyl-benzyl)-methyl-carbamoyl]-2-(R)-(4-fluoro-2-methyl-phenyl)-piperidin-4-yl]-1-carboxylic acid, methylamide hydrochloride]: the Ki in data set [1] was 43.7 pM.

Turning to `CC(=O)N1CCN([C@@H]2CCN(C(=O)N(C)Cc3cc(C(F)(F)F)cc(C(F)(F)F)c3)[C@@H](c3ccc(F)cc3C)C2)CC1` [Example 7a, 4-(R)-(4-Acetyl-piperazin-1-yl)-2-(R)-(4-fluoro-2-methyl-phenyl)-piperidine-1-carboxylic acid, (3,5-bis-trifluoromethyl-benzyl)-methylamide hydrochloride], the inhibition constant (Ki) in data set [1] is 708 pM.

Turning to `Cc1cc(F)ccc1[C@H]1C[C@@H](N2CCN(C(=O)N(C)C)CC2)CCN1C(=O)N(C)Cc1cc(C(F)(F)F)cc(C(F)(F)F)c1` [Example 15, 4-(S)-[1-[(3,5-Bis-trifluoromethyl-benzyl)-methyl-carbamoyl]-2-(R)-(4-fluoro-2-methyl-phenyl)-piperidin-4-yl]-piperazine-1-carboxylic acid, dimethylamide hydrochloride], in data set [1], the inhibition constant Ki is 45.7 pM.

Consider “2-(R)-(4-Fluoro-2-methyl-phenyl)-4-(S)-piperazin-1-yl-piperidine-1-carboxylic acid, [1-(R)-(3,5-bis-trifluoromethyl-phenyl)-ethyl]-methylamide hydrochloride [Example 9]”, for which, in data set [1], the “pki (negative logarithm of the inhibition constant Ki)” value worked out at 9.93.

With `CC(=O)N1CCN([C@H]2CCN(C(=O)N(C)[C@H](C)c3cc(C(F)(F)F)cc(C(F)(F)F)c3)[C@@H](c3ccc(F)cc3C)C2)CC1.Cl` [Example 3, 4-(S)-(4-Acetyl-piperazin-1-yl)-2-(R)-(4-fluoro-2-methyl-phenyl)-piperidine-1-carboxylic acid, [1-(R)-(3,5-bis-trifluoromethyl-phenyl)-ethyl]-methylamide hydrochloride], the ED50 on NK1 receptor was 0.05 mg/kg.

`CC(=O)N1CCN([C@H]2CCN(C(=O)N(C)[C@H](C)c3cc(C(F)(F)F)cc(C(F)(F)F)c3)[C@@H](c3ccc(F)cc3)C2)CC1` [Example 19, 4-(S)-(4-Acetyl-piperazin-1-yl)-2-(R)-(4-fluoro-phenyl)-piperidine-1-carboxylic acid, [1-(R)-(3,5-bis-trifluoromethyl-phenyl)-ethyl]-methylamide hydrochloride]: in data set [1], the Ki was 417 pM.
